Experimental data from paper PMC10415494, “Ga(III) pyridinecarboxylate complexes: potential analogues of the second generation of therapeutic Ga(III) complexes?” (Journal of Biological Inorganic Chemistry, 2023).

Tested on: any model microorganism
Assay: Antimicrobial activity, macrodilution method, all model microorganisms together
Assay type: cell-based
Conditions: free ligands, range 0.5–2.0 mM
Experimental: Cultures of bacteria (in Mueller–Hinton broth, MHB) and yeasts (in Sabouraud’s growth medium, SB) were incubated under shaking (250 rpm) at 37 °C. The growth of bacteria and yeasts was evaluated by measuring the absorbance of the growing cultures (A590) until the cultures reached the stationary growth phase. The effects of gallium(III) complexes on the growth of filamentous fungi Rhizopus oryzae (R. oryzae) CCM F-8284, Alternaria alternata (A. alternata) CCM F-128 and Microsporum gypseum (M. gypseum) CCM F-8342 (Czech Collection of Microorganisms) were observed by macrodilution method on solidified potato-dextrose growth medium (PDA). During culturing, the diameters of growing fungal colonies were measured at regular intervals. Briefly, the antimicrobial activity (bacteria and yeasts) gallium(III) complexes/ ligands were added to the microbial culture at the beginning of the cultivation-to the lag phase. Pure gallium(III) complexes/ligands were dissolved in DMSO. The final concentration of DMSO never exceeded 1.0 vol. % neither in control nor treated samples. Concentration of gallium(III) complexes used in experimental work for evaluation of antimicrobial activity was used in the range of 0.05–2 mM, for the free ligands in the range of 0.5–2.0 mM in all experiments. […] The IC50 values were evaluated from toxicity curves. All the obtained results of antimicrobial activity were compared to the activity of Ga(NO3)3.

Compound: O=C(O)c1ccccn1 [HPic, picolinic acid]
- effect on the growth of any model microorganism: did not affect the growth
